# Experiments:
# clinical [1] = conditions: human, in vivo, iv, Vdss
# clinical [2] = conditions: human, in vivo, iv, t1/2
# clinical [3] = conditions: human, in vivo, iv
# clinical [4] = conditions: human, in vivo, iv; remark: listed apart in the source
# clinical [5] = conditions: human, in vivo, iv, CL
Compound,Vd (clinical [1]),half-life (clinical [2]),MRT (clinical [3]),fraction unbound (clinical [4]),clearance (clinical [5])
Nc1cc(-c2ccncc2)c[nH]c1=O [INAMRINONE],1.3 L/kg,2 h,2.4 h,0.89,8.9 mL/min/kg
CC1(C)C(/C=C/C=C/C=C/C=C2/N(CCCCS(=O)(=O)[O-])c3ccc4ccccc4c3C2(C)C)=[N+](CCCCS(=O)(=O)[O-])c2ccc3ccccc3c21.[Na+] [INDOCYANINE GREEN],0.035 L/kg,0.065 h,0.086 h,0.05,6.8 mL/min/kg
COc1ccc2c(c1)c(CC(=O)O)c(C)n2C(=O)c1ccc(Cl)cc1 [INDOMETHACIN],0.096 L/kg,1.4 h,1.2 h,0.01,1.3 mL/min/kg
O=C(NC1CCN(CCc2c[nH]c3ccccc23)CC1)c1ccccc1 [INDORAMIN],4.9 L/kg,4.3 h,4.1 h,0.15,20 mL/min/kg
CC(=O)N(CC(O)CO)c1c(I)c(C(=O)NCC(O)CO)c(I)c(C(=O)NCC(O)CO)c1I (stereo not given) [IOHEXOL],0.16 L/kg,1.5 h,1.3 h,1,2 mL/min/kg
C[C@H](O)C(=O)Nc1c(I)c(C(=O)NC(CO)CO)c(I)c(C(=O)NC(CO)CO)c1I [IOPAMIDOL],0.28 L/kg,2.1 h,2.5 h,1,1.9 mL/min/kg
COCC(=O)Nc1c(I)c(C(=O)NCC(O)CO)c(I)c(C(=O)N(C)CC(O)CO)c1I (stereo not given) [IOPROMIDE],0.22 L/kg,2.6 h,2.6 h,0.99,1.4 mL/min/kg
CCCCC1=NC2(CCCC2)C(=O)N1Cc1ccc(-c2ccccc2-c2nnn[nH]2)cc1 [IRBESARTAN],0.94 L/kg,14 h,6.8 h,0.1,2.3 mL/min/kg
CC(C)NCC(O)c1ccc(O)c(O)c1 (stereo not given) [ISOPROTERENOL],1.5 L/kg,0.41 h,0.43 h,0.71,56 mL/min/kg
COC(=O)C1=C(C)NC(C)=C(C(=O)OC(C)C)C1c1cccc2nonc12 (stereo not given) [ISRADIPINE],1.5 L/kg,3.3 h,1 h,0.04,26 mL/min/kg
CNC1(c2ccccc2Cl)CCCCC1=O (stereo not given) [KETAMINE],2.9 L/kg,2.8 h,2.5 h,0.47,19 mL/min/kg
CCNC(=O)[C@@H]1CCCN1C(=O)[C@H](CCCNC(=N)N)NC(=O)[C@H](CC(C)C)NC(=O)[C@@H](CC(C)C)NC(=O)[C@H](Cc1ccc(O)cc1)NC(=O)[C@H](CO)NC(=O)[C@H](Cc1c[nH]c2ccccc12)NC(=O)[C@H](Cc1c[nH]cn1)NC(=O)[C@@H]1CCC(=O)N1 [LEUPROLIDE],0.38 L/kg,2.9 h,3.1 h,0.54,2 mL/min/kg
C#C[C@]1(O)CC[C@H]2[C@@H]3CCC4=CC(=O)CC[C@@H]4[C@H]3CC[C@@]21CC [LEVONORGESTREL],1.5 L/kg,9.4 h,14 h,0.025,1.8 mL/min/kg
C[C@@H]1CC(=O)NN=C1c1ccc(NN=C(C#N)C#N)cc1 [LEVOSIMENDAN],0.24 L/kg,1.1 h,1.1 h,0.02,3.8 mL/min/kg
CCC[C@@H]1C[C@@H](C(=O)N[C@@H]([C@H]2O[C@H](SC)[C@H](O)[C@@H](O)[C@H]2O)[C@@H](C)O)N(C)C1 [LINCOMYCIN],1 L/kg,5.6 h,7.5 h,0.14,2.1 mL/min/kg
O=C([O-])[O-].[Li+].[Li+] [LITHIUM CARBONATE],0.62 L/kg,7.8 h,7.9 h,1,1.3 mL/min/kg
CNCCCC12CCC(c3ccccc31)c1ccccc12 [MAPROTILINE],45 L/kg,51 h,54 h,0.11,14 mL/min/kg
CCOC(=O)C1(c2ccccc2)CCN(C)CC1 [MEPERIDINE],2.3 L/kg,7.9 h,6.4 h,0.42,4.9 mL/min/kg
Cc1cccc(C)c1NC(=O)C1CCCCN1C (stereo not given) [MEPIVACAINE],0.95 L/kg,2 h,2.5 h,0.3,6.8 mL/min/kg
CCCC(C)(COC(N)=O)COC(N)=O [MEPROBAMATE],0.7 L/kg,14 h,19 h,1,0.6 mL/min/kg
